Data taken from publication PMC5504085 (Journal of medicinal chemistry, 2017).

System: not listed separately
Test: Metabolic stability in mouse liver microsomes
Format: in vitro ADME
Conditions: without cofactors, 2 hours

| Compound | stability of parent in mouse liver microsomes |
| --- | --- |
| Cc1ccoc1C(=O)N1CCCn2nc(C(=O)Cc3ccccc3)cc2C1 [Compound 8p, 1-(5-(3-Methylfuran-2-carbonyl)-5,6,7,8-tetrahydro-4H-pyrazolo[1,5-a][1,4]diazepin-2-yl)-2-phenylethanone] | parent remained intact |

System: not listed separately
Test: Metabolic stability in mouse liver S9 fractions
Format: in vitro ADME
Conditions: in the absence of cofactors

| Compound | stability with mouse S9 fractions |
| --- | --- |
| Cc1ccoc1C(=O)N1CCCn2nc(C(=O)Nc3ccccc3F)cc2C1 [Compound 8g, N-(2-fluorophenyl)-5-(3-methylfuran-2-carbonyl)-5,6,7,8-tetrahydro-4H-pyrazolo[1,5-a][1,4]diazepine-2-carboxamide] | hydrolyzed rapidly |

Same assay, conditions: mouse S9 subcellular fractions

| Compound | improvement in half-life compared to 8g |
| --- | --- |
| Cc1ccoc1C(=O)N1CCCn2nc(C(=O)Cc3ccccc3)cc2C1 [Compound 8p, 1-(5-(3-Methylfuran-2-carbonyl)-5,6,7,8-tetrahydro-4H-pyrazolo[1,5-a][1,4]diazepin-2-yl)-2-phenylethanone] | 2 fold |

System: recRSV-A2-L19FD489E-fireSMASh
Test: not given
Format: cell-based, respiratory syncytial virus
Conditions: not given

| Compound | improvement in antiviral potency compared to hit compound 1a |
| --- | --- |
| Cc1ccoc1C(=O)N1CCCn2nc(C(=O)Nc3ccc(F)cc3Cl)cc2C1 [Compound 8n, N-(2-chloro-4-fluorophenyl)-5-(3-methylfuran-2-carbonyl)-5,6,7,8-tetrahydro-4H-pyrazolo[1,5-a][1,4]diazepine-2-carboxamide] | approximately 4 fold |
| Cc1ccoc1C(=O)N1CCCn2nc(C(=O)Nc3ccc(F)cc3F)cc2C1 [Compound 8c, N-(2,4-difluorophenyl)-5-(3-methylfuran-2-carbonyl)-5,6,7,8-tetrahydro-4H-pyrazolo[1,5-a][1,4]diazepine-2-carboxamide] | approximately 4 fold |
| Cc1ccoc1C(=O)N1CCCn2nc(C(=O)Nc3ccccc3F)cc2C1 [Compound 8g, N-(2-fluorophenyl)-5-(3-methylfuran-2-carbonyl)-5,6,7,8-tetrahydro-4H-pyrazolo[1,5-a][1,4]diazepine-2-carboxamide] | approximately 4 fold |

Same assay, conditions: SAR discussion

| Compound | antiviral (anti-RSV) activity in words |
| --- | --- |
| O=C(Nc1ccccc1)c1cc2n(n1)CCCN(S(=O)(=O)c1ccco1)C2 [Compound 1u, 5-(Furan-2-ylsulfonyl)-N-phenyl-5,6,7,8-tetrahydro-4H-pyrazolo[1,5-a][1,4]diazepine-2-carboxamide] | complete loss of bioactivity |
| Cc1ccc(C(=O)N2CCCn3nc(C(=O)Nc4ccccc4)cc3C2)o1 [Compound 1p, 5-(5-Methylfuran-2-carbonyl)-N-phenyl-5,6,7,8-tetrahydro-4H-pyrazolo[1,5-a][1,4]diazepine-2-carboxamide] | loss of activity |
| Cc1ccoc1C(=O)N1CCCn2nc(NC(=O)c3ccccc3)cc2C1 [Compound 8s, N-(5-(3-methylfuran-2-carbonyl)-5,6,7,8-tetrahydro-4H-pyrazolo[1,5-a][1,4]diazepin-2-yl)benzamide] | loss of activity |
| 5-(4-Methyloxazole-5-carbonyl)-N-phenyl-5,6,7,8-tetrahydro-4H-pyrazolo[1,5-a][1,4]diazepine-2-carboxamide [Compound 1r] | complete loss of potency |
| Cc1ccn(C)c1C(=O)N1CCCn2nc(C(=O)Nc3ccccc3)cc2C1 [Compound 1e, 5-(1,3-Dimethyl-1H-pyrrole-2-carbonyl)-N-phenyl-5,6,7,8-tetrahydro-4H-pyrazolo[1,5-a][1,4]diazepine-2-carboxamide] | complete loss of potency |
| Cc1ccoc1C(=O)N1CCCn2nc(C(=O)N(C)c3ccccc3)cc2C1 [Compound 8a, N-methyl-5-(3-methylfuran-2-carbonyl)-N-phenyl-5,6,7,8-tetrahydro-4H-pyrazolo[1,5-a][1,4]diazepine-2-carboxamide] | loss of activity |
| Cc1ccoc1C(=O)N1CCCn2nc(C(=O)Nc3ccc(F)cc3Cl)cc2C1 [Compound 8n, N-(2-chloro-4-fluorophenyl)-5-(3-methylfuran-2-carbonyl)-5,6,7,8-tetrahydro-4H-pyrazolo[1,5-a][1,4]diazepine-2-carboxamide] | nanomolar potency |
| COc1ccc(NC(=O)c2cc3n(n2)CCCN(C(=O)c2occc2C)C3)cc1 [Compound 8l, N-(4-methoxyphenyl)-5-(3-methylfuran-2-carbonyl)-5,6,7,8-tetrahydro-4H-pyrazolo[1,5-a][1,4]diazepine-2-carboxamide] | nanomolar potency |
| O=C(Nc1ccccc1)c1cc2n(n1)CCCN(C(=O)c1occc1-c1ccccc1)C2 [Compound 1h, N-phenyl-5-(3-phenylfuran-2-carbonyl)-5,6,7,8-tetrahydro-4H-pyrazolo[1,5-a][1,4]diazepine-2-carboxamide] | lacked appreciable inhibitory activity |
| Cc1cc[nH]c1C(=O)N1CCCn2nc(C(=O)Nc3ccccc3)cc2C1 [Compound 1d, 5-(3-Methyl-1H-pyrrole-2-carbonyl)-N-phenyl-5,6,7,8-tetrahydro-4H-pyrazolo[1,5-a][1,4]diazepine-2-carboxamide] | complete loss of potency |
| Cc1ccsc1C(=O)N1CCCn2nc(C(=O)Nc3ccccc3)cc2C1 [Compound 1c, 5-(3-Methylthiophene-2-carbonyl)-N-phenyl-5,6,7,8-tetrahydro-4H-pyrazolo[1,5-a][1,4]diazepine-2-carboxamide] | complete loss of potency |
| Cc1c(C(=O)N2CCCn3nc(C(=O)Nc4ccccc4)cc3C2)oc2ccccc12 [Compound 1i, 5-(3-Methylbenzofuran-2-carbonyl)-N-phenyl-5,6,7,8-tetrahydro-4H-pyrazolo[1,5-a][1,4]diazepine-2-carboxamide] | complete loss of potency |
| 5-(4-Methylisoxazole-5-carbonyl)-N-phenyl-5,6,7,8-tetrahydro-4H-pyrazolo[1,5-a][1,4]diazepine-2-carboxamide [Compound 1q] | complete loss of potency |
| Cc1ccoc1CN1CCCn2nc(C(=O)Nc3ccccc3)cc2C1 [Compound 1t, 5-((3-Methylfuran-2-yl)methyl)-N-phenyl-5,6,7,8-tetrahydro-4H-pyrazolo[1,5-a][1,4]diazepine-2-carboxamide] | complete loss of bioactivity |
| O=C(Nc1ccccc1)c1cc2n(n1)CCCN(C(=O)c1occc1C(F)(F)F)C2 [Compound 1j, N-phenyl-5-(3-(trifluoromethyl)furan-2-carbonyl)-5,6,7,8-tetrahydro-4H-pyrazolo[1,5-a][1,4]diazepine-2-carboxamide] | negative impacts on the potency |
| Cc1ccoc1C(=O)N1CCCn2nc(NS(=O)(=O)c3ccccc3)cc2C1 [Compound 8t, N-(5-(3-methylfuran-2-carbonyl)-5,6,7,8-tetrahydro-4H-pyrazolo[1,5-a][1,4]diazepin-2-yl)benzenesulfonamide] | loss of activity |
| Cc1ccoc1C(=O)N1CCCn2nc(C(=O)Cc3ccccc3)cc2C1 [Compound 8p, 1-(5-(3-Methylfuran-2-carbonyl)-5,6,7,8-tetrahydro-4H-pyrazolo[1,5-a][1,4]diazepin-2-yl)-2-phenylethanone] | retained sufficient activity |
| Cc1cc(C(=O)N2CCCn3nc(C(=O)Nc4ccccc4)cc3C2)oc1C [Compound 1n, 5-(4,5-Dimethylfuran-2-carbonyl)-N-phenyl-5,6,7,8-tetrahydro-4H-pyrazolo[1,5-a][1,4]diazepine-2-carboxamide] | lacked antiviral activity |
| CCc1ccoc1C(=O)N1CCCn2nc(C(=O)Nc3ccccc3)cc2C1 [Compound 1k, 5-(3-Ethylfuran-2-carbonyl)-N-phenyl-5,6,7,8-tetrahydro-4H-pyrazolo[1,5-a][1,4]diazepine-2-carboxamide] | negative impacts on the potency |
| O=C(Nc1ccccc1)c1cc2n(n1)CCCN(C(=O)c1ccncn1)C2 [Compound 1s, N-phenyl-5-(pyrimidine-4-carbonyl)-5,6,7,8-tetrahydro-4H-pyrazolo[1,5-a][1,4]diazepine-2-carboxamide] | complete loss of potency |
| Cc1ccoc1C(=O)N1CCCn2nc(C(=O)Nc3ccc(F)cc3)cc2C1 [Compound 8i, N-(4-fluorophenyl)-5-(3-methylfuran-2-carbonyl)-5,6,7,8-tetrahydro-4H-pyrazolo[1,5-a][1,4]diazepine-2-carboxamide] | nanomolar potency |
| Cc1ccoc1C(=O)N1CCCn2nc(CNc3ccccc3)cc2C1 [Compound 8q, (3-Methylfuran-2-yl)(2-((phenylamino)methyl)-7,8-dihydro-4H-pyrazolo[1,5-a][1,4]diazepin-5(6H)-yl)methanone] | retained sufficient activity |
| Cc1coc(C(=O)N2CCCn3nc(C(=O)Nc4ccccc4)cc3C2)c1 [Compound 1o, 5-(4-Methylfuran-2-carbonyl)-N-phenyl-5,6,7,8-tetrahydro-4H-pyrazolo[1,5-a][1,4]diazepine-2-carboxamide] | loss of activity |
| Cc1ccoc1C(=O)N1CCCn2nc(S(=O)(=O)Nc3ccccc3)cc2C1 [Compound 8r, 5-(3-Methylfuran-2-carbonyl)-N-phenyl-5,6,7,8-tetrahydro-4H-pyrazolo[1,5-a][1,4]diazepine-2-sulfonamide] | loss of activity |

System: RSV
Test: not given
Conditions: orally available; phase II clinical trials; cited from earlier work

| Compound | effect on viral load and disease symptoms |
| --- | --- |
| CC(C)C(=O)OC[C@@]1(CCl)O[C@@H](n2ccc(N)nc2=O)[C@H](F)[C@@H]1OC(=O)C(C)C [ALS-8176, 4'-chloromethyl-2'-deoxy-3',5'-di-o-isobutyryl-2'-fluorocytidine] | decreased viral load and disease symptoms |
